Like-named read-outs stand apart in the source and are kept apart here.
What was measured:
[1] = system: acute cerebral ischemia (MCAO) in rats; format: in vivo, Male Wistar rats; conditions: 3 mg/kg, 5 doses from 2 h after surgery, 48 h
[2] = system: acute cerebral ischemia (MCAO) in rats; set-up: species or system Male Wistar rats; conditions: rat, in vivo, 3 mg/kg
[3] = system: lactic acid in brain tissues; experiment: Level of lactic acid in brain tissues 48 hours after permanent MCAO; format: in vivo, Male Wistar rats; conditions: rat brain tissues, 3 mg/kg
[4] = system: superoxide dismutase (SOD); format: in vivo, Male Wistar rats; conditions: rat brain tissues, 3 mg/kg, 48 hours after permanent MCAO

Compound: CC1=NN(c2ccccc2)C(=O)C1 [Edaravone, edaravone]
- Scores of MCAO neurological symptoms ([1]; model group 5.3 ± 2.8): 4.3 ± 1.6
- Scores of MCAO neurological symptoms ([1]; model group 5.3 ± 2.8, listed as edaravone): no significant difference
- Volume (area) of cerebral infarction [2]: decreased significantly
- Level of Lactic acid ([3]; model 0.98 ± 0.09, sham 0.37 ± 0.01): 0.64 ± 0.08 mmol/g protein
- Level of Lactic acid ([3]; model 0.98 ± 0.09, sham 0.37 ± 0.01, listed as edaravone): 0.64±0.08 mmol/g protein
- SOD Activity [4]: 234.66 ± 15.85 U/mg pro
- SOD Activity ([4]; listed as edaravone): significantly increased
